# Assay results as given in patent US20200078323A1, “METHOD OF TREATING OVARIAN CANCER USING ZETA-STAT” (University of South Florida, priority 2018, published 2020).
# “Also recorded” adds a separate entry of the source.
# Key:
# TOV21G cells = test: Proliferation of TOV21G cells treated with ζ-Stat (cellometer count, WST-1); format: cell-based; details: 24, 48 and 72 hours, control DMSO
# Experimental: FIGS. 1A-1C. Proliferation curves for TOV21G cells treated with ζ-Stat. TOV21G cells were treated with ζ-Stat for 24, 48, and 72 hours. The control cells were treated with DMSO. (FIG. 1A) Treatments counted on a cellometer. (FIG. 1B) Standard curve for TOV21G cells in WST-1 reagent. (FIG. 1C) Treatments after 72 hours measured using WST-1 reagent.
# (§1) Ovarian cancer is the most lethal gynecological cancer. […] The most common ovarian cancer diagnosis is epithelial ovarian carcinomas, which constitute for 85-90% of prognosis. Of epithelial ovarian carcinomas, clear cell ovarian carcinoma (CCOC) represents 5% of incidence. CCOC presents unique pathological features and has a high reoccurrence rate after treatment. An overexpression of atypical PKCs (PKC-ζ and PKC-ι/λ) has been observed in various malignant cell lines and is linked to pathways for cellular proliferation and invasion. Ovarian cell lines (TOV21G and ES-2) were treated with the atypical PKC-ζ inhibitor ζ-Stat (8-hydroxynaphthalene-1,3,6-trisulfonic acid) and assayed to determine the effects on proliferation and cellular invasion. […] Tumor growth in athymic female mice is decreased when treated with ζ-Stat and the mouse body weight is maintained. Thus, PKC-ζ is identified herein as a novel target in carcinogenesis and inhibition of this protein decreases the rate of proliferation.
# ES-2 cells = test: Proliferation of ES-2 cells treated with ζ-Stat (cellometer count, WST-1); format: cell-based; details: 24, 48 and 72 hours, control DMSO
# Experimental: FIGS. 2A-2C. Proliferation curves for ES-2 cells treated with ζ-Stat. ES-2 cells were treated with ζ-Stat for 24, 48, and 72 hours. The control cells were treated with DMSO. (FIG. 2A) Treatments counted on a cellometer. (FIG. 2B) Standard curve for ES-2 cells in WST-1 reagent. (FIG. 2C) Treatments after 72 hours measured using WST-1 reagent.
# as §1
# PKC-ζ = target: T1, PKC-ζ (Homo sapiens, UniProt Q05513); test: Protein expression of PKC-ζ in TOV21G and ES-2 cells; format: cell-based; details: protein and genomic studies
# T1 construct: Protein expression of PKC-ζ and RhoA of TOV21G and ES-2 cells when treated for 72 hours with DMSO and ζ-Stat; endogenous in cells; host or cells: TOV21G and ES-2 cells
# T1 sequence (Q05513 1-592): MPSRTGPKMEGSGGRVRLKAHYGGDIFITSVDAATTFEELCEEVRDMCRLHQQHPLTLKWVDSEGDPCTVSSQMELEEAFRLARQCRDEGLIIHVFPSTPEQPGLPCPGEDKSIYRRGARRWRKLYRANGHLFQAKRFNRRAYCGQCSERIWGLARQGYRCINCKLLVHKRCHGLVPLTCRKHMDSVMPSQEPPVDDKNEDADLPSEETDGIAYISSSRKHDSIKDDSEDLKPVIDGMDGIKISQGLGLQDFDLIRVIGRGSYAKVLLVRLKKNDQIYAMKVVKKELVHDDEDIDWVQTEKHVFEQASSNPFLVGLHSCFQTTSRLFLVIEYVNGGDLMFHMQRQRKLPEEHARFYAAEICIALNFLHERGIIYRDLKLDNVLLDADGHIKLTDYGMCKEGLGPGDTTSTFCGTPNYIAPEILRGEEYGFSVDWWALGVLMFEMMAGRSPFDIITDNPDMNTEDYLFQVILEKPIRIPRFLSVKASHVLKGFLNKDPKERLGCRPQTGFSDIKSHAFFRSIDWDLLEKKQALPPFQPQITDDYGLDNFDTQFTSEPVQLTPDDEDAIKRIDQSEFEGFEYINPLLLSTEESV
# Experimental: (§2) FIGS. 3A-3B. Protein expression of […] and […] of TOV21G and ES-2 cells when treated for 24, 48, and 72 hours with DMSO, ICA-1, and ζ-Stat. (FIG. 3A) TOV21G protein expression levels with treatments and quantified N=3. (FIG. 3B) ES-2 protein expression levels with treatments and quantified N=3.
# (§3) FIGS. 4A-4B. Protein expression of PKC-ζ and RhoA of TOV21G and ES-2 cells when treated for 72 hours with DMSO and ζ-Stat and genomic expression of RhoA in TOV21G. (FIG. 4A) TOV21G and ES-2 protein expression after 72 hours of treatment. (FIG. 4B) TOV21G genomic expression of RhoA with ζ-Stat treatment after 72 hours of treatment.
# PKC-ι = target: T2, PKC-ι (Homo sapiens, UniProt P41743); test: Protein expression of PKC-ι in TOV21G and ES-2 cells; format: cell-based; details: protein and genomic studies
# T2 construct: endogenous in cells; host or cells: TOV21G and ES-2 cells
# T2 sequence (P41743 1-596): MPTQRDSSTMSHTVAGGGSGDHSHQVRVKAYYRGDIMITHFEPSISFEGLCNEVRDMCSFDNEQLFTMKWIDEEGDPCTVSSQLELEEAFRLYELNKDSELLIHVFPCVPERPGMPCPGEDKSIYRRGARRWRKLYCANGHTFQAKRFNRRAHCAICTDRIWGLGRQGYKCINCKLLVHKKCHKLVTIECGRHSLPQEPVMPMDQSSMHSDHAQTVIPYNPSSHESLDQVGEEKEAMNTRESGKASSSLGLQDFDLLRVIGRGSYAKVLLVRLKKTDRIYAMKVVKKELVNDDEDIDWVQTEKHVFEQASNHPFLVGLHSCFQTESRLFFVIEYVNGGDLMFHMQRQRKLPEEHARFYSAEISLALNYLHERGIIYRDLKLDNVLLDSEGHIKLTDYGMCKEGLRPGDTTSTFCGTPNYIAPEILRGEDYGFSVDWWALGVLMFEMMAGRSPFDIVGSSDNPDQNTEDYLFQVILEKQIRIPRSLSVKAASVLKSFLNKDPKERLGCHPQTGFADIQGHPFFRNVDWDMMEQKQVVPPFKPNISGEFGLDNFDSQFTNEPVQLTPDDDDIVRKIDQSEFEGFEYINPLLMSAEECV
# Experimental: as §2
# RhoA = test: Protein and genomic expression of RhoA in TOV21G cells; format: cell-based; details: 72 hours
# Experimental: as §3
# CCOC cells = test: Wound healing / cellular invasion of CCOC cells; format: cell-based
# Source text: as §1
# TOV21G xenographs = test: TOV21G xenograph tumor growth in athymic female nude mice; format: in vivo; details: 20 mg/kg, every other day, subcutaneously intra-tumor and around the tumor site
# Experimental: (§4) FIGS. 5A-5C. In-vivo TOV21G xenographs treated with 1×DPBS (vehicle, N=6) and 20 mg/kg ζ-Stat (N=6) for 30 days. (FIG. 5A) Tumor growth (mm^3) for the control mice and the treatment mice. The graph at the bottom represents the average body weight of the mice throughout the treatment period. (FIG. 5B) Tumors extracted at the endpoint of the experiment. The graph below represents the size of tumors from the treatment group represented as the percentage of the control. (FIG. 5C) Enzyme panel tested after the endpoint of the experiment. The bars represent glucose, BUN, ALT, AST and ALKP levels.
# (§5) Effects of ζ-Stat on athymic mice ovarian xenograph were tested. Twelve athymic female nude mice weighing between 20-25 g and more than 10 weeks of age were used. The mice were divided into two groups after TOV21G cells (CRL-11730, American Type Culture Collection) were implanted (A million cells/mouse flank in 0.2 ml of media). The first group was the control group (n=6), which received 100 μl of DPBS (21-031-CM, Corning Cellgro, VA). The second group (n=6) received 100 μl of 20 mg/kg of ζ-Stat dissolved in DPBS. The tumor volume was calculated using the formula: length×width×width×½. Three days after implantation of the cells, the tumors were treated as of day 0. The treatments were administered every other day subcutaneously intra-tumor and around the tumor site for […].
# [1] = Toxicity and body weight in xenograph mice (enzyme panel, body weight); format: in vivo
# Experimental: as §4, §5
structure (smiles),measurement,setting,value
"O=S(=O)(O)c1cc(O)c2c(S(=O)(=O)O)cc(S(=O)(=O)O)cc2c1 [ζ-Stat, 8-hydroxynaphthalene-1,3,6-trisulfonic acid]",proliferation of TOV21G cells,TOV21G cells,decreased
same,proliferation of ES-2 cells,ES-2 cells,decreased
same,expression of PKC-ζ,PKC-ζ,knocks down the expression of PKC-ζ
same,expression of PKC-ι,PKC-ι,not the expression of PKC-ι
same,expression of RhoA at the genomic level,RhoA,knocks down the expression of RhoA
same,expression of RhoA at the protein level,RhoA,knocks down the expression of RhoA
same,wound healing,CCOC cells,decreased wound healing
same,tumor growth,TOV21G xenographs,decreased; also recorded: reduced
same,mouse body weight,[1]; athymic female mice treated with ζ-Stat,maintained
same,toxic effect,"[1]; mice, 20 mg/kg, after 30 days of treatment",did not have a toxic effect
